Article PMC9221290, “Alkaloids of Dicranostigma franchetianum (Papaveraceae) and Berberine Derivatives as a New Class of Antimycobacterial Agents” (Biomolecules, 2022)
≈ marks a conversion by molar mass, not a printed value. Like-named read-outs stand apart in the source and are kept apart here.

Tests used:
[1] = system: Mycobacterium kansasii DSM 44162 (ATCC 12478); test: Antimycobacterial microdilution broth assay (resazurin), M. kansasii; assay type: cell-based; details: Mycobacterium kansasii, 96 h, read-out: MIC M. kansasii, microdilution broth, resazurin, 96 h
[2] = system: Mtb H37Ra ITM-M006710 (ATCC 9431); test: Antimycobacterial microdilution broth assay (resazurin), Mtb H37Ra; assay type: cell-based, Mycobacterium tuberculosis
[3] = system: Mycolicibacterium aurum DSM 43999 (ATCC 23366); test: Antimycobacterial microdilution broth assay (resazurin), M. aurum; assay type: cell-based; details: 72 h; for MIC: Mycolicibacterium aurum, read-out: MIC M. aurum, microdilution broth, resazurin, 72 h; for MIC M. aurum: microdilution broth, resazurin
[4] = system: Mycolicibacterium smegmatis DSM 43465 (ATCC 607); test: Antimycobacterial microdilution broth assay (resazurin), M. smegmatis; assay type: cell-based; details: 48 h; for MIC: Mycolicibacterium smegmatis, read-out: MIC M. smegmatis, microdilution broth, resazurin, 48 h
[5] = system: Mycobacterium avium DSM 44156 (ATCC 25291); test: Antimycobacterial microdilution broth assay (resazurin), M. avium; assay type: cell-based; details: 96 h; for MIC: Mycobacterium avium, read-out: MIC M. avium, microdilution broth, resazurin, 96 h
[6] = system: HepG2 cells
[7] = in vitro; details: human, % of cell viability compared to control; for viability at 1 µM: HepG2, 1 µM; for viability at 5 µM: HepG2, 5 µM; for viability at 10 µM: HepG2, 10 µM; for viability at 25 µM: HepG2, 25 µM; for viability at 50 µM: HepG2, 50 µM; for viability at 75 µM: HepG2, 75 µM; for viability at 100 µM: HepG2, 100 µM
[8] = system: HepG2 cells; test: cells; details: Homo sapiens, HepG2, 24 h
[9] = Mycobacterium tuberculosis, 120 h, microdilution broth, resazurin, 120 h, read-out: MIC Mtb H37Ra
[10] = Mycobacterium tuberculosis, calculated from MIC (µg/mL) and MW, read-out: MIC Mtb H37Ra
[11] = read-out: HepG2 IC50, 1. measurement, MTT, 24 h, single measurement 1
[12] = read-out: HepG2 IC50, 2. measurement, MTT, 24 h, single measurement 2
[13] = read-out: HepG2 IC50, 3. measurement, MTT, 24 h, single measurement 3
[14] = read-out: HepG2 IC50, MTT, 24 h incubation

Q: Which MIC [1] does the source give for `c1cc2c(c3c1C[C@H]1c4cc5c(cc4CCN1C3)OCO5)OCO2` [compound 4, stylopine] here?
A: ≥ 125 µg/mL

Q: And the MIC [2, 9]?
A: ≥ 125 µg/mL

Q: And the MIC [2, 10]?
A: ≥ 387 µM

Q: What about the MIC [3] of the same compound?
A: ≥ 125 µg/mL

Q: And the MIC [4]?
A: ≥ 125 µg/mL

Q: What about the MIC [5] of the same compound?
A: ≥ 125 µg/mL

Q: What does the source list for `COc1ccc2cc3[n+](cc2c1OCc1ccc(Cl)c(Cl)c1)CCc1cc2c(cc1-3)OCO2` [16k, 9-O-(3,4-dichlorbenzyl)berberine chloride]?
A: MIC [1]: 6.25 µg/mL; MIC [2, 9]: 1.56 µg/mL; MIC [2, 10]: 2.78 µM; SI (selectivity index) [6]: 4.55; MIC [3]: 1.56 µg/mL; MIC [4]: 1.56 µg/mL; viability at 1 µM ([7]; 1. measurement): 97.6%; viability at 5 µM ([7]; 1. measurement): 66.5%; viability at 10 µM ([7]; 1. measurement): 50.4%; viability at 25 µM ([7]; 1. measurement): 43.4%; viability at 50 µM ([7]; 1. measurement): 35%; viability at 75 µM ([7]; 1. measurement): 13.2%; viability at 100 µM ([7]; 1. measurement): 2.33%; viability at 1 µM ([7]; 2. measurement): 97.8%; viability at 5 µM ([7]; 2. measurement): 79.2%; viability at 10 µM ([7]; 2. measurement): 46.7%; viability at 25 µM ([7]; 2. measurement): 35.5%; viability at 50 µM ([7]; 2. measurement): 35%; viability at 75 µM ([7]; 2. measurement): 28.2%; viability at 100 µM ([7]; 2. measurement): 4.02%; viability at 1 µM ([7]; 3. measurement): 85.7%; viability at 5 µM ([7]; 3. measurement): 67%; viability at 10 µM ([7]; 3. measurement): 46.9%; viability at 25 µM ([7]; 3. measurement): 43.6%; viability at 50 µM ([7]; 3. measurement): 11.7%; viability at 75 µM ([7]; 3. measurement): 0.77%; viability at 100 µM ([7]; 3. measurement): 0.81%; IC50 [8, 11]: 13.3 µM; IC50 [8, 12]: 14.8 µM; IC50 [8, 13]: 9.9 µM; IC50 [8, 14]: 12.7 ± 2.51 µM; MIC [5]: 1.56 µg/mL

Q: What does the source list for `COc1ccc2cc3[n+](cc2c1OCc1cccc(Br)c1)CCc1cc2c(cc1-3)OCO2` [16f, 9-O-(3-brombenzyl)berberine chloride]?
A: MIC [1]: 3.12 µg/mL; MIC [2, 9]: 3.12 µg/mL; MIC [2, 10]: 5.93 µM; SI (selectivity index) [6]: 2.34; MIC [3]: 1.56 µg/mL; MIC [4]: 0.78 µg/mL; viability at 1 µM ([7]; 1. measurement): 95.5%; viability at 5 µM ([7]; 1. measurement): 69.4%; viability at 10 µM ([7]; 1. measurement): 54.8%; viability at 25 µM ([7]; 1. measurement): 48.3%; viability at 50 µM ([7]; 1. measurement): 39.3%; viability at 75 µM ([7]; 1. measurement): 28%; viability at 100 µM ([7]; 1. measurement): 12.3%; viability at 1 µM ([7]; 2. measurement): 104%; viability at 5 µM ([7]; 2. measurement): 76.8%; viability at 10 µM ([7]; 2. measurement): 56.1%; viability at 25 µM ([7]; 2. measurement): 52.7%; viability at 50 µM ([7]; 2. measurement): 32.8%; viability at 75 µM ([7]; 2. measurement): 2.26%; viability at 100 µM ([7]; 2. measurement): 0.77%; viability at 1 µM ([7]; 3. measurement): 90.5%; viability at 5 µM ([7]; 3. measurement): 62.6%; viability at 10 µM ([7]; 3. measurement): 49.4%; viability at 25 µM ([7]; 3. measurement): 43.7%; viability at 50 µM ([7]; 3. measurement): 23.7%; viability at 75 µM ([7]; 3. measurement): 2.27%; viability at 100 µM ([7]; 3. measurement): 1.1%; IC50 [8, 11]: 14.1 µM; IC50 [8, 12]: 17 µM; IC50 [8, 13]: 10.5 µM; IC50 [8, 14]: 13.9 ± 3.25 µM; MIC [5]: 3.12 µg/mL

Q: What does the source list for protopine [compound 6]?
A: MIC ([2]; calculated from MIC (µg/mL) and MW, read-out: MIC Mtb H37Ra): ≥1416 µM; MIC Mtb H37Ra ([2]; microdilution broth, resazurin, 120 h): ≥500 µg/mL; MIC M. aurum [3]: ≥500 µg/mL; MIC M. smegmatis ([4]; microdilution broth, resazurin): ≥500 µg/mL; MIC M. avium ([5]; microdilution broth, resazurin): 250 µg/mL

Q: With `COc1ccc2c(c1OC)CN(C)c1c-2ccc2cc3c(cc12)OCO3` [compound 2, dihydrochelerythrine] as the compound, how does the MIC [1] read?
A: 250 µg/mL (≈ 716 µM)

Q: And the MIC [2, 9]?
A: 250 µg/mL

Q: What about the MIC [2, 10] of the same compound?
A: 716 µM

Q: And the MIC [3]?
A: 250 µg/mL (≈ 716 µM)

Q: And the MIC [4]?
A: ≥ 500 µg/mL

Q: And the MIC [5]?
A: 62.5 µg/mL (≈ 179 µM)

Q: With `CN1Cc2c(ccc3c2OCO3)-c2ccc3cc4c(cc3c21)OCO4` [compound 1, dihydrosanguinarine] as the compound, how does the MIC [1] read?
A: 125 µg/mL (≈ 375 µM)

Q: What about the MIC [2, 9] of the same compound?
A: ≥ 500 µg/mL

Q: What about the MIC [2, 10] of the same compound?
A: ≥ 1500 µM

Q: And the MIC [3]?
A: ≥ 500 µg/mL

Q: And the MIC [4]?
A: ≥ 500 µg/mL

Q: What about the MIC [5] of the same compound?
A: ≥ 500 µg/mL

Q: Which IC50 [8, 14] does the source give for `COc1cccc2c1C(=O)c1c(O)c3c(c(O)c1C2=O)C[C@@](O)(C(=O)CO)C[C@@H]3O[C@H]1C[C@H](N)[C@H](O)[C@H](C)O1` [doxorubicine, reference compound] here?
A: 30.4 ± 1.74 µM

Q: With `CO[C@H]1/C=C/O[C@@]2(C)Oc3c(C)c(O)c4c(O)c(c(/C=N/N5CCN(C)CC5)c(O)c4c3C2=O)NC(=O)/C(C)=C\C=C\[C@H](C)[C@H](O)[C@@H](C)[C@@H](O)[C@@H](C)[C@H](OC(C)=O)[C@@H]1C` [rifampicin, reference compound] as the compound, how does the MIC ([2]; Mycobacterium tuberculosis, read-out: MIC Mtb H37Ra (µM), calculated from MIC (µg/mL) and MW) read?
A: 0.0075 µM

Q: And the “MIC Mtb H37Ra” value ([2]; microdilution broth, resazurin, 120 h, listed as RIF)?
A: 0.00156 to 0.0031 µg/mL

Q: What about the MIC [3] of the same compound?
A: 0.39 to 0.78 µg/mL (≈ 0.474 to 0.948 µM)

Q: What about the “MIC M. aurum” value [3] of the same compound?
A: 0.39 µg/mL (≈ 0.474 µM)
